# What was measured:
# Phosphodiesterase 7 [1] = molecular target: T1, Phosphodiesterase 7 (Homo sapiens, UniProt Q13946+Q9NP56); experiment: Inhibition of human MOLT4 cell-derived PDE7 at 30 ug/ml using [3H]cAMP as substrate measured after 2 hrs in presence of rolipram/milrinone by topcount method relative to control; type: protein assay
# [2] = molecular target: cAMP and cAMP-inhibited cGMP 3',5'-cyclic phosphodiesterase 10A (Homo sapiens, UniProt Q9Y233); experiment: Inhibition of human MOLT4 cell-derived PDE10A using [3H]cAMP as substrate measured after 2 hrs in presence of rolipram/milrinone by topcount method
# Mus musculus [3] = species on record: Mus musculus; experiment: Inhibition of Balb/c mouse lung PDE5 at 30 ug/ml using [3H]cGMP as substrate measured after 2 hrs by topcount method relative to control
# Mus musculus [4] = species on record: Mus musculus; experiment: Inhibition of Balb/c mouse liver PDE4 at 30 ug/ml using [3H]cAMP as substrate measured after 2 hrs by topcount method relative to control
# Mus musculus [5] = species on record: Mus musculus; experiment: Inhibition of Balb/c mouse liver PDE2 at 30 ug/ml using [3H]cAMP as substrate measured after 2 hrs in presence of cGMP by topcount method relative to control
# Mus musculus [6] = species on record: Mus musculus; experiment: Inhibition of Balb/c mouse liver PDE1 at 30 ug/ml using [3H]cAMP as substrate measured after 2 hrs in presence of calmodulin by topcount method relative to control
# [7] = Inhibition of Balb/c mouse lung PDE5 using [3H]cGMP as substrate measured after 2 hrs by topcount method
# CYP3A4 = CYP3A4 (Homo sapiens, UniProt P08684); experiment: Inhibition of CYP3A4 (unknown origin) at 10 uM relative to control; type: ADME
# CYP2D6 = CYP2D6 (Homo sapiens, UniProt P10635); experiment: Inhibition of CYP2D6 (unknown origin) at 10 uM relative to control; type: ADME
# Homo sapiens = species on record: Homo sapiens; experiment: Selectivity ratio of IC50 for human MOLT4 cell-derived PDE7 to IC50 for human MOLT4 cell-derived PDE10A
# [8] = Inhibition of Balb/c mouse liver PDE4 using [3H]cAMP as substrate measured after 2 hrs by topcount method
# hERG (KCNH2) = hERG (KCNH2) (Homo sapiens, UniProt Q12809); experiment: Inhibition of human ERG at 10 uM relative to control
# [9] = Inhibition of Balb/c mouse liver PDE1 using [3H]cAMP as substrate measured after 2 hrs in presence of calmodulin by topcount method
# [10] = Selectivity ratio of IC50 for Balb/c mouse lung PDE5 to IC50 for human MOLT4 cell-derived PDE10A
# [11] = Selectivity ratio of IC50 for Balb/c mouse liver PDE1 to IC50 for human MOLT4 cell-derived PDE10A
# [12] = Selectivity ratio of IC50 for Balb/c mouse liver PDE4 to IC50 for human MOLT4 cell-derived PDE10A
# [13] = Selectivity ratio of IC50 for Balb/c mouse liver PDE2 to IC50 for human MOLT4 cell-derived PDE10A
# [14] = Inhibition of Balb/c mouse liver PDE2 using [3H]cAMP as substrate measured after 2 hrs in presence of cGMP by topcount method
# Phosphodiesterase 7 [15] = molecular target: T1, Phosphodiesterase 7; experiment: Inhibition of human MOLT4 cell-derived PDE7 using [3H]cAMP as substrate measured after 2 hrs in presence of rolipram/milrinone by topcount method; type: protein assay
# Chain of cAMP and cAMP-inhibited cGMP 3',5'-cyclic phosphodiesterase 10A (Q9Y233 whole entry): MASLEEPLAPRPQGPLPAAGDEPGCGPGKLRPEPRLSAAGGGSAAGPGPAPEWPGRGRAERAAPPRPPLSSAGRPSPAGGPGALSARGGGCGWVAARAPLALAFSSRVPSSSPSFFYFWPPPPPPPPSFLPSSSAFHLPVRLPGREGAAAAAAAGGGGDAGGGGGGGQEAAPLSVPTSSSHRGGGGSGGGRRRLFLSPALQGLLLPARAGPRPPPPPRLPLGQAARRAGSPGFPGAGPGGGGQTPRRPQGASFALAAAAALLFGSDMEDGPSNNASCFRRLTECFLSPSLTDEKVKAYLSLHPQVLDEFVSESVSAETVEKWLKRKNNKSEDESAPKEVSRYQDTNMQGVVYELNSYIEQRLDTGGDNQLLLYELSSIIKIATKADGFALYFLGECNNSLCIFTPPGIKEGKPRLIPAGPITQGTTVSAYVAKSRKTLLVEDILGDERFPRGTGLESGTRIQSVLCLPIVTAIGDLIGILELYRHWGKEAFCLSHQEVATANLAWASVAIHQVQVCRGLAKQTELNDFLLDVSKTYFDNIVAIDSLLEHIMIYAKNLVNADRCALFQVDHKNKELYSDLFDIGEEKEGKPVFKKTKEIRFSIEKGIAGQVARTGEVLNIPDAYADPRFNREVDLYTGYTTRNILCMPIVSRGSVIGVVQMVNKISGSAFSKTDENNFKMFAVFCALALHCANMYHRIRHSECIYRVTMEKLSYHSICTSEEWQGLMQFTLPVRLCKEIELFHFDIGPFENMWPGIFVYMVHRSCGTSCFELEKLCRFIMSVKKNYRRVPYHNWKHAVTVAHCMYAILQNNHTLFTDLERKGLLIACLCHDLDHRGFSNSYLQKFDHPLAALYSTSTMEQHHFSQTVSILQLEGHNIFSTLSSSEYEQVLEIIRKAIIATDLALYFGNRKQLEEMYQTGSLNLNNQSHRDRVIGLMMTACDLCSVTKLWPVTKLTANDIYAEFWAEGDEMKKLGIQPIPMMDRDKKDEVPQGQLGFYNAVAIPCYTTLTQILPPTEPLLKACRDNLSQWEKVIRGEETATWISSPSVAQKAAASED
# Chain of CYP2D6 (P10635 whole entry): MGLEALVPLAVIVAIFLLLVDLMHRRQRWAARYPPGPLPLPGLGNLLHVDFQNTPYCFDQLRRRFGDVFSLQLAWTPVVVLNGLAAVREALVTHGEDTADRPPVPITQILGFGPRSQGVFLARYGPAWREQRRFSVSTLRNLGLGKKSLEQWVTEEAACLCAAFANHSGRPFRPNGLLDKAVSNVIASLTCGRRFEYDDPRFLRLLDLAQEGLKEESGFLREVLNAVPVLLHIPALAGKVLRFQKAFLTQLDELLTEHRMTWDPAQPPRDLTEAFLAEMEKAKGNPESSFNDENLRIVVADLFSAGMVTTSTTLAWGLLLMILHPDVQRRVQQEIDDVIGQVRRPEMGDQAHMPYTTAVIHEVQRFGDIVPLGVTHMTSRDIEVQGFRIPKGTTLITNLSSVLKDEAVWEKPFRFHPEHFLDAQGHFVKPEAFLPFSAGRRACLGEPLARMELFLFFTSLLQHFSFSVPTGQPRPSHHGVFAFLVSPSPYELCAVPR
# T1 sequence (Q13946 whole entry, looked up): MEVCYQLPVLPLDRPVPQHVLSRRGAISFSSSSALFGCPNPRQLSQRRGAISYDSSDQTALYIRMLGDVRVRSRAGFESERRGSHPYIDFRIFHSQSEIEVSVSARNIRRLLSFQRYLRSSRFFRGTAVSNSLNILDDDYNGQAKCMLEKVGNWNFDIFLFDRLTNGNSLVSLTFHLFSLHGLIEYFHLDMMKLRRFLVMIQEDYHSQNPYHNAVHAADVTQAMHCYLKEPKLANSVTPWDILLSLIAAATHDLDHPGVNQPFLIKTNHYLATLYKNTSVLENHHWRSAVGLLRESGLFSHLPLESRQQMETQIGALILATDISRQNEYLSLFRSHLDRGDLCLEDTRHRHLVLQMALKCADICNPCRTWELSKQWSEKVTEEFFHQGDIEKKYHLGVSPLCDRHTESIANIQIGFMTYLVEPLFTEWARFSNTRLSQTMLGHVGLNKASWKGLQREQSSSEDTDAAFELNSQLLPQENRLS
# T1 sequence (Q9NP56 whole entry, looked up): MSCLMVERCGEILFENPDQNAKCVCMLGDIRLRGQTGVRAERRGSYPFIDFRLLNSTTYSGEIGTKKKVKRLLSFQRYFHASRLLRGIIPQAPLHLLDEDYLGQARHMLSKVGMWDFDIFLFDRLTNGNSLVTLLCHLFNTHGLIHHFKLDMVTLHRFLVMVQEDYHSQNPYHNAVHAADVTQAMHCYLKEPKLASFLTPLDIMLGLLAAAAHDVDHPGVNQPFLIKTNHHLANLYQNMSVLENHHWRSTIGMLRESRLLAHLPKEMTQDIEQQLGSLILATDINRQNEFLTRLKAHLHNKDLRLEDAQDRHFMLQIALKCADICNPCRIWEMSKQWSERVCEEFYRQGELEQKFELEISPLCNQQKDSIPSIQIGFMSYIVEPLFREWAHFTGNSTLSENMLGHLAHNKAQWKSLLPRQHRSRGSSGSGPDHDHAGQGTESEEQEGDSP
# Chain of hERG (KCNH2) (Q12809 whole entry): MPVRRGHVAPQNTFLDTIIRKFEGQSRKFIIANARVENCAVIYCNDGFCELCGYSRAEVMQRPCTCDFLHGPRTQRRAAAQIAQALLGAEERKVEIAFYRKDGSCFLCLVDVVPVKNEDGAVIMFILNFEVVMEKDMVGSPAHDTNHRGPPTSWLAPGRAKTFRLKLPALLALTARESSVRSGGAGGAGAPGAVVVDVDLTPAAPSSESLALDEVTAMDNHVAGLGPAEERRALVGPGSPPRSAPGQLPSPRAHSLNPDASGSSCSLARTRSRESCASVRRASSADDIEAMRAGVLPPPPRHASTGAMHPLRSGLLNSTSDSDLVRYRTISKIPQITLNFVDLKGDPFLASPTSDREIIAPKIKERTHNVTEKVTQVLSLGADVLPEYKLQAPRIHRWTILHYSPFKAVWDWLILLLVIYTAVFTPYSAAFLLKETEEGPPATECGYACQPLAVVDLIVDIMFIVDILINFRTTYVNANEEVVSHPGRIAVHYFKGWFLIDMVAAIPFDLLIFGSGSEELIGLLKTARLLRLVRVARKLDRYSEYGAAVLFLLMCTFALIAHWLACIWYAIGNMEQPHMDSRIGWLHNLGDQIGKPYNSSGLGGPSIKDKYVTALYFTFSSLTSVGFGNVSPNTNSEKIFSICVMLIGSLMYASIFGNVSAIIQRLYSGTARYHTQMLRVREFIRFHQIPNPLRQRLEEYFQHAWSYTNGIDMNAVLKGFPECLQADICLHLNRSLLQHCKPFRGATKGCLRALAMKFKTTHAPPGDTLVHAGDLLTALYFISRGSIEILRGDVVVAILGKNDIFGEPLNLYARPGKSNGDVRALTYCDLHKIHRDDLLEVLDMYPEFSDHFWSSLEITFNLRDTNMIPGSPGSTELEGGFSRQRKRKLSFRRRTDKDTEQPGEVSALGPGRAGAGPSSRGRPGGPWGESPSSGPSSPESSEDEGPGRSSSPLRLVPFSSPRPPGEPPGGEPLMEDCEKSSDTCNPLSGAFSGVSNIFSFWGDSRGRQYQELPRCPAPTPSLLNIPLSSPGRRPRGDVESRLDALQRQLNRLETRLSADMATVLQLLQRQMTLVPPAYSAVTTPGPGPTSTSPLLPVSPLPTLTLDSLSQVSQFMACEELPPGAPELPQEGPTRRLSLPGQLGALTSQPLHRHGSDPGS
# Chain of CYP3A4 (P08684 whole entry): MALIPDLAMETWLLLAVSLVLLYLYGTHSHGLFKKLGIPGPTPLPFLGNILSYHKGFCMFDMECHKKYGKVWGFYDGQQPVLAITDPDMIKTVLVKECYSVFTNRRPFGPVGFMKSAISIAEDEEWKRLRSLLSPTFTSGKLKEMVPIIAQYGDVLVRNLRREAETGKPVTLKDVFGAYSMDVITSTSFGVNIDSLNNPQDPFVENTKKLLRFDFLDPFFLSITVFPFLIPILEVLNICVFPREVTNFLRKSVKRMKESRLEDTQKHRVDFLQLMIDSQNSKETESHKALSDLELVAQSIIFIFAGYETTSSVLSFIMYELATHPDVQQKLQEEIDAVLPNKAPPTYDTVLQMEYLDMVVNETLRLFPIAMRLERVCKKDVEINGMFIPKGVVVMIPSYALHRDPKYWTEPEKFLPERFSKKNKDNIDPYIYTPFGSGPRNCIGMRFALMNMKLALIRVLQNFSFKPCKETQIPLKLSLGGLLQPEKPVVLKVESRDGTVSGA
smiles,measurement,setting,value
O=C(Nc1cc2cccccc-2n1)/C(=C/c1ccccc1)c1ccccc1,inhibition,Phosphodiesterase 7 [1],< 25%
same,IC50,[2],510 nM
same,inhibition,Mus musculus [3],25 to 50%
same,inhibition,Mus musculus [4],25 to 50%
same,inhibition,Mus musculus [5],25 to 50%
same,inhibition,Mus musculus [6],25 to 50%
CC(=O)c1cccc2c(C)c(C(=O)Nc3ccc4ccccc4n3)sc12,IC50,[7],> 10000 nM
same,IC50,[2],7.6 nM
same,inhibition at 10 µM,CYP3A4,0%
same,inhibition at 10 µM,CYP2D6,0%
same,Ratio IC50,Homo sapiens,> 1300
same,IC50,[8],> 10000 nM
same,inhibition at 10 µM,hERG (KCNH2),10%
same,IC50,[9],> 10000 nM
same,Ratio IC50,[10],> 1300
same,Ratio IC50,[11],> 1300
same,Ratio IC50,[12],> 1300
same,Ratio IC50,[13],> 1300
same,IC50,[14],> 10000 nM
same,IC50,Phosphodiesterase 7 [15],> 10000 nM
Cc1c(C(=O)Nc2ccc3ccccc3n2)sc2c(C#N)cccc12,IC50,[2],110 nM
CNC(=O)c1cccc2c(C)c(C(=O)Nc3ccc4ccccc4n3)sc12,IC50,[2],23 nM
CCc1c(C(=O)Nc2ccc3ccccc3n2)sc2c(-c3ccncc3)cccc12,IC50,[2],5.2 nM
Cc1c(C(=O)Nc2ccc3ccccc3n2)sc2c(-c3ccccn3)cccc12,IC50,[2],62 nM
Cc1c(C(=O)Nc2ccc3ccccc3n2)sc2c(C(N)=O)cccc12,IC50,[2],23 nM
O=C(Nc1ccc2ccccc2n1)c1cc2cccc(-c3ccncc3)c2s1,IC50,[2],47 nM
Cc1c(C(=O)Nc2ccc3ccccc3n2)sc2c(-c3ccncc3)cccc12,IC50,[2],4.7 nM
same,inhibition at 10 µM,CYP3A4,1%
same,inhibition at 10 µM,CYP2D6,45%
same,inhibition at 10 µM,hERG (KCNH2),36%
Cc1c(C(=O)Nc2ccc3ccccc3n2)sc2c(-c3cccnc3)cccc12,IC50,[2],120 nM
Cc1c(C(=O)Nc2ccc3ccccc3n2)sc2c(I)cccc12,IC50,[2],200 nM
O=C(Nc1ccc2ccccc2n1)/C(=C/c1ccccc1)c1ccccc1,inhibition,Phosphodiesterase 7 [1],< 25%
same,IC50,[2],440 nM
same,inhibition,Mus musculus [3],< 25%
same,inhibition,Mus musculus [4],< 25%
same,inhibition,Mus musculus [5],< 25%
same,inhibition,Mus musculus [6],< 25%
Cc1c(C(=O)Nc2ccc3ccccc3n2)sc2c(C(=O)N(C)C)cccc12,IC50,[2],44 nM
Cc1c(C(=O)Nc2ccc3ccccc3n2)sc2c(-c3ccoc3)cccc12,IC50,[2],320 nM
CC(=O)c1ccc(C(C)=O)c2sc(C(=O)Nc3cc(C(C)(C)O)c4ccccc4n3)cc12,IC50,[2],13 nM

# From ChEMBL document CHEMBL4339202, “Benzothiophene derivatives as phosphodiesterase 10A (PDE10A) inhibitors: Hit-to-lead studies” (Bioorg Med Chem Lett, 2019)
